{
  "source": "patent US12410153B2",
  "about": "“Compounds, compositions and methods” (Avalo Therapeutics, Inc., priority 2014, dated 2025)",
  "key": {"[1]": {"assay": "Single-dose pharmacokinetics in monkeys (oral and IV)", "assay_type": "in vivo", "settings": "male, rhesus monkey, plasma", "experimental": "Male Sprague-Dawley rats (N=8; N=4 oral and N=4 intravenous [IV]) weighing approximately 250-280 g and male rhesus monkeys (N=4, crossover) weighing 6.0-8.8 kg were used for the PK studies. In rats, the IV dose of crystalline Form II of Compound (I) at 2 mg/kg (0.4 mL/kg) was administered as a bolus and the oral dose was administered by gavage at 15 mg/kg (5 mL/kg). In monkeys, the IV dose of Form II at 2 mg/kg (0.1 mL/kg) was administered as a slow bolus and the oral dose was administered via nasogastric tube at 15 mg/kg (5 mL/kg). Blood samples were serially collected pre-dose, and at 0.083 (IV only), 0.25, 0.50, 1, 2, 4, 6, 8, 10, 24, 48, 72, and 96 h post-dose. The concentrations of Form II in rat and monkey plasma were determined by LC/MS/MS analysis in the positive ion mode using a heated nebulizer interface. The lower limit of quantitation was 2.5 ng/mL (approximately 0.00697 μM)."}, "[2]": {"biological_target": "T1, NMDA-GluN2B receptors, human temporal cortex homogenate (Homo sapiens, UniProt Q05586+Q13224)", "T1 construct": "temporal cortex homogenate (human); from tissue; host or cells: human temporal cortex homogenate", "T1 sequence (Q13224 27-1484, other chains not shown)": "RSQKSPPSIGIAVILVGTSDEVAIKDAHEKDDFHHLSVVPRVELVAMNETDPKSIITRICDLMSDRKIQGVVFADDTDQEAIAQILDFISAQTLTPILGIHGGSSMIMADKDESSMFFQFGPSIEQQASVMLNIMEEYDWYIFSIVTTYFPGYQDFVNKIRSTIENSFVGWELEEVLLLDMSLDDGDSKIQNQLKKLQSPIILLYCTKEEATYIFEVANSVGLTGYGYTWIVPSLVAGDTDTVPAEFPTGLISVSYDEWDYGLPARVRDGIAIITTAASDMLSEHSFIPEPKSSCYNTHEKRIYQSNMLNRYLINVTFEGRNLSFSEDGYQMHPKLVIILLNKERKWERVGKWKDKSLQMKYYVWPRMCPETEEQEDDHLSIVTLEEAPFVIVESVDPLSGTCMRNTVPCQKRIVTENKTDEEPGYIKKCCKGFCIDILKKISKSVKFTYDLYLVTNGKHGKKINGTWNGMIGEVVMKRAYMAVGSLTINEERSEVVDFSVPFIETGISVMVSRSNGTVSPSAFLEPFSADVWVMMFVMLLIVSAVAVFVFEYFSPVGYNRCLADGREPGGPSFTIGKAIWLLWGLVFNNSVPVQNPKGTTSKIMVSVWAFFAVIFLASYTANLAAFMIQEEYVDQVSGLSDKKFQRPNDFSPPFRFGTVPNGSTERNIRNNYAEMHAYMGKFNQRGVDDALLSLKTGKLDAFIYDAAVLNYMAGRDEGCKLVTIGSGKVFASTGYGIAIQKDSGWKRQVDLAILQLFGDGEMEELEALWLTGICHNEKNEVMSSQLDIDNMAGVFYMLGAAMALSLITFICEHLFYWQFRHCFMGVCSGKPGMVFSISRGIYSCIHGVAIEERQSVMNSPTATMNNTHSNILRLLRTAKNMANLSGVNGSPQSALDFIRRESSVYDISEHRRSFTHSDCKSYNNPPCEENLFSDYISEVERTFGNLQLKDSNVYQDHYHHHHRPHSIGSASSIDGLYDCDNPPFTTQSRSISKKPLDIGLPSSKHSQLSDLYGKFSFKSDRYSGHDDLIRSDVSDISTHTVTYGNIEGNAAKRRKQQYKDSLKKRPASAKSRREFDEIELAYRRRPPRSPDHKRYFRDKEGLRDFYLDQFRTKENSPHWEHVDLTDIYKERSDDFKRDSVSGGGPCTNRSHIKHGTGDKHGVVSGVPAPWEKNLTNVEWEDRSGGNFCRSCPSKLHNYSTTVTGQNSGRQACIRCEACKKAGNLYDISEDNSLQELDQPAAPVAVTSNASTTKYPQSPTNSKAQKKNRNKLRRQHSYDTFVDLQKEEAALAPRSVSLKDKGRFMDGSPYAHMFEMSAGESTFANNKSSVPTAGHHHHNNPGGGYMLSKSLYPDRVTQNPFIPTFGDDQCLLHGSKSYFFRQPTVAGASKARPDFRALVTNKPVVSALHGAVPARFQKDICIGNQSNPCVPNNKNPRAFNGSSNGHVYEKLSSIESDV", "assay": "Radioligand binding, human temporal cortex homogenate", "settings": "geometric mean", "experimental": "Radioligand binding assays were performed at room temperature (or 37° C.) in 96-well microtiter plates with a final assay volume of […] in 20 mM HEPES buffer (pH 7.4) containing 150 mM NaCl. […] Nonspecific binding was assessed using N-(3-chlorobenzyl)-4-iodobenzimidamide (final concentration, 10 μM), and total binding was measured by addition of DMSO (final concentration, 2%). L(tk−) cell membranes expressing human GluN1a/GluN2B receptors (final concentration, 40 pM) and [^3H]-[(E)-N1-(2-methoxybenzyl)-cinnamamidine] (final concentration, 1 nM) were added to all wells of the microtiter plate. After 3 h (24 h or 48 h) of incubation at room temperature (or 37° C.), samples were filtered through Packard GF/B filters (presoaked in 0.05% polyethylenimine [PEI; Sigma P-3143]) and washed 10 times with 1 mL of cold 20 mM HEPES buffer per wash. After vacuum drying of the filter plates, 50 μL of Packard Microscint-20 was added and the bound radioactivity determined in a Packard TopCount.\nAnalogous binding experiments, to those described above for the cloned human receptor expressed in L(tk−) cells, were also performed using whole brain homogenate (rat), frontal cortex homogenate (dog and rhesus monkey), and temporal cortex homogenate (human)."}, "[3]": {"settings": "rhesus, PO 15 mg/kg, mean (S.D.)"}},
  "data": [
    {"smiles": "Cc1ccc(COC(=O)N2CC[C@H](CNc3ncccn3)[C@H](F)C2)cc1", "note": "[Form II, 4-methylbenzyl (3S, 4R)-3-fluoro-4-[(pyrimidin-2-ylamino)methyl] piperidine-1-carboxylate]", "values": [
      {"measurement": "bioavailability", "setting": "[1]; 15 mg/kg, dose-normalized AUC0-∞ after IV and PO, crossover", "result": 50, "unit": "%"},
      {"measurement": "Tmax", "setting": "[1]; po, 15 mg/kg, PO 15 mg/kg, mean (S.D.)", "result": "~2", "unit": "h"},
      {"measurement": "half-life", "setting": "[1]; IV 2 mg/kg, mean (S.D.)", "result": 4.2, "unit": "h"},
      {"measurement": "clearance", "setting": "[1]; IV 2 mg/kg, mean (S.D.), read-out: CLp", "result": 15.1, "unit": "mL/min/kg"},
      {"measurement": "Vd", "setting": "[1]; IV 2 mg/kg, mean (S.D.), read-out: Vdss", "result": 2.9, "unit": "L/kg"},
      {"measurement": "AUC(0-inf)", "setting": "[1]; rhesus, IV 2 mg/kg, mean (S.D.)", "result": 6.67, "unit": "µM·h"},
      {"measurement": "AUC(0-inf)", "setting": "[1]; [3]", "result": 25.1, "unit": "µM·h"},
      {"measurement": "Cmax", "setting": "[1]; [3]", "result": 3.6, "unit": "µM"},
      {"measurement": "Ki", "setting": "[2]; 37° C.", "result": 8.1, "unit": "nM"},
      {"measurement": "Ki", "setting": "[2]; room temp.", "result": 3.1, "unit": "nM"}
    ]}
  ]
}
